Data reported in ChEMBL document CHEMBL6092174, “Synthesis and anti-influenza virus activity of substituted dibenzoxepine-based baloxavir derivatives” (Eur J Med Chem, 2024).
Active and inactive are the calls of the source. No cut-off for these calls is given here.

Test system: not listed separately
Assay: AUC (0 to infinity) in CD-1 mouse at 1 mg/kg, iv measured upto 24 hrs by LC-MS/MS analysis
Assay type: ADME, organism-based
Details: in vivo

SMILES | AUC(0-inf)
O=C1c2c(O)c(=O)ccn2N([C@H]2c3ccc(F)cc3COc3ccccc32)[C@@H]2COCCN12 | 343 ng·h/mL
O=C1c2c(O)c(=O)ccn2N([C@@H]2c3ccccc3OCc3c(Cl)cccc32)[C@@H]2COCCN12 | 355 ng·h/mL

Test system: not listed separately
Assay: Metabolic stability in human liver microsomes assessed as half life at 1 uM in presence of NADPH by LC-MS/MS analysis
Assay type: ADME, Microsome
Details: time 60 min

SMILES | half-life at 1 µM
O=C1c2c(O)c(=O)ccn2N([C@H]2c3ccc(F)cc3COc3ccccc32)[C@@H]2COCCN12 | 11.6 h
O=C1c2c(O)c(=O)ccn2N([C@@H]2c3ccccc3OCc3c(Cl)cccc32)[C@@H]2COCCN12 | 2.57 h

Test system: Influenza A virus
Assay: Antiviral activity against Influenza A virus H1N1(A/FM/1/47) infected in dog MDCK cells assessed as reduction in cytopathic effect incubated for 2 days
Assay type: functional, organism-based
Details: 48 h

SMILES | EC50
O=C1c2c(O)c(=O)ccn2N([C@H]2c3ccc(F)cc3COc3ccccc32)[C@@H]2COCCN12 | 1.65 nM
O=C1c2c(O)c(=O)ccn2N([C@@H]2c3ccccc3OCc3c(Cl)cccc32)[C@@H]2COCCN12 | 6.1 nM

Test system: not listed separately
Assay: Cytotoxicity against dog MDCK cells assessed as reduction in cell viability incubated for 2 days by CCK-8 assay
Assay type: toxicity, cell-based, Canis lupus familiaris
Details: time 2 day

SMILES | CC50 at 48 h
O=C1c2c(O)c(=O)ccn2N([C@H]2c3ccc(F)cc3COc3ccccc32)[C@@H]2COCCN12 | > 50000 nM
O=C1c2c(O)c(=O)ccn2N([C@@H]2c3ccccc3OCc3c(Cl)cccc32)[C@@H]2COCCN12 | 24600 nM

Test system: not listed separately
Assay: Oral bioavailability in CD-1 mouse at 15 mg/kg measured upto 24 hrs by LC-MS/MS analysis
Assay type: ADME, organism-based
Details: in vivo

SMILES | bioavailability
O=C1c2c(O)c(=O)ccn2N([C@H]2c3ccc(F)cc3COc3ccccc32)[C@@H]2COCCN12 | 54.3%
O=C1c2c(O)c(=O)ccn2N([C@@H]2c3ccccc3OCc3c(Cl)cccc32)[C@@H]2COCCN12 | 31.5%

Test system: Influenza A virus
Assay: Antiviral activity against Influenza A virus H1N1 infected in dog MDCK cells assessed as disruption of nuclear protein expression at 10 to 20 nM by Western blot analysis
Assay type: functional, organism-based
Details: dose 10-20 nM

SMILES | Activity
O=C1c2c(O)c(=O)ccn2N([C@H]2c3ccc(F)cc3COc3ccccc32)[C@@H]2COCCN12 | Active
O=C1c2c(O)c(=O)ccn2N([C@@H]2c3ccccc3OCc3c(Cl)cccc32)[C@@H]2COCCN12 | Active

Test system: not listed separately
Assay: Half life in CD-1 mouse at 1 mg/kg, iv measured upto 24 hrs by LC-MS/MS analysis
Assay type: ADME, organism-based
Details: in vivo

SMILES | half-life
O=C1c2c(O)c(=O)ccn2N([C@H]2c3ccc(F)cc3COc3ccccc32)[C@@H]2COCCN12 | 2.6 h
O=C1c2c(O)c(=O)ccn2N([C@@H]2c3ccccc3OCc3c(Cl)cccc32)[C@@H]2COCCN12 | 1.99 h

Test system: Influenza B virus
Assay: Antiviral activity against Influenza B virus IBV/Lee/40 infected in dog MDCK cells assessed as reduction in cytopathic effect incubated for 2 days by TCID50 method
Assay type: functional, organism-based
Details: IBV/Lee/40, MDCK, 48 h

SMILES | EC50
O=C1c2c(O)c(=O)ccn2N([C@H]2c3ccc(F)cc3COc3ccccc32)[C@@H]2COCCN12 | 2.12 nM
O=C1c2c(O)c(=O)ccn2N([C@@H]2c3ccccc3OCc3c(Cl)cccc32)[C@@H]2COCCN12 | 2.32 nM

Test system: not listed separately
Assay: AUC (0 to infinity) in CD-1 mouse at 15 mg/kg, po measured upto 24 hrs by LC-MS/MS analysis
Assay type: ADME, organism-based
Details: in vivo

SMILES | AUC(0-inf)
O=C1c2c(O)c(=O)ccn2N([C@H]2c3ccc(F)cc3COc3ccccc32)[C@@H]2COCCN12 | 2790 ng·h/mL
O=C1c2c(O)c(=O)ccn2N([C@@H]2c3ccccc3OCc3c(Cl)cccc32)[C@@H]2COCCN12 | 1680 ng·h/mL

Test system: not listed separately
Assay: Cmax in CD-1 mouse at 15 mg/kg, po measured upto 24 hrs by LC-MS/MS analysis
Assay type: ADME, organism-based
Details: in vivo

SMILES | Cmax
O=C1c2c(O)c(=O)ccn2N([C@H]2c3ccc(F)cc3COc3ccccc32)[C@@H]2COCCN12 | 548 ng/mL
O=C1c2c(O)c(=O)ccn2N([C@@H]2c3ccccc3OCc3c(Cl)cccc32)[C@@H]2COCCN12 | 222 ng/mL

Test system: Influenza A virus
Assay: Antiviral activity against Influenza A virus H3N2 (A/Aichi/2/68) infected in dog MDCK cells assessed as reduction in cytopathic effect incubated for 2 days
Assay type: functional, organism-based
Details: 48 h

SMILES | EC50
O=C1c2c(O)c(=O)ccn2N([C@H]2c3ccc(F)cc3COc3ccccc32)[C@@H]2COCCN12 | 0.78 nM
O=C1c2c(O)c(=O)ccn2N([C@@H]2c3ccccc3OCc3c(Cl)cccc32)[C@@H]2COCCN12 | 0.78 nM

Test system: not listed separately
Assay: Cmax in CD-1 mouse at 1 mg/kg, iv measured upto 24 hrs by LC-MS/MS analysis
Assay type: ADME, organism-based
Details: in vivo

SMILES | Cmax
O=C1c2c(O)c(=O)ccn2N([C@H]2c3ccc(F)cc3COc3ccccc32)[C@@H]2COCCN12 | 211 ng/mL
O=C1c2c(O)c(=O)ccn2N([C@@H]2c3ccccc3OCc3c(Cl)cccc32)[C@@H]2COCCN12 | 258 ng/mL

Test system: not listed separately
Assay: Metabolic stability in human liver microsomes assessed as intrinsic clearance at 1 uM incubated for 60 mins in presence of NADPH by LC-MS/MS analysis
Assay type: ADME, Microsome
Details: 1 h

SMILES | CLint
O=C1c2c(O)c(=O)ccn2N([C@H]2c3ccc(F)cc3COc3ccccc32)[C@@H]2COCCN12 | 2 µL/min/mg
O=C1c2c(O)c(=O)ccn2N([C@@H]2c3ccccc3OCc3c(Cl)cccc32)[C@@H]2COCCN12 | 9 µL/min/mg

Test system: Influenza A virus
Assay: Antiviral activity against Influenza A virus H1N1(A/Puetro Rico/8/34) infected in dog MDCK cells assessed as reduction in cytopathic effect incubated for 2 days
Assay type: functional, organism-based
Details: 48 h

SMILES | EC50
O=C1c2c(O)c(=O)ccn2N([C@H]2c3ccc(F)cc3COc3ccccc32)[C@@H]2COCCN12 | 3.32 nM
O=C1c2c(O)c(=O)ccn2N([C@@H]2c3ccccc3OCc3c(Cl)cccc32)[C@@H]2COCCN12 | 14.4 nM

Test system: HEK293T
Assay: Inhibition of Influenza A virus RdRp transfected in HEK293T co-expressing PB1/PB2/PA/NP/firefly luciferase/Renilla luciferase incubated for 24 hrs relative to control
Assay type: cell-based
Details: dose or concentration not given here

SMILES | inhibition
O=C1c2c(O)c(=O)ccn2N([C@H]2c3ccc(F)cc3COc3ccccc32)[C@@H]2COCCN12 | 82.6%
O=C1c2c(O)c(=O)ccn2N([C@@H]2c3ccccc3OCc3c(Cl)cccc32)[C@@H]2COCCN12 | 72%

Test system: not listed separately
Assay: Metabolic stability in mouse liver microsomes assessed as half life at 1 uM in presence of NADPH by LC-MS/MS analysis
Assay type: ADME, Microsome
Details: time 60 min

SMILES | half-life at 1 µM
O=C1c2c(O)c(=O)ccn2N([C@H]2c3ccc(F)cc3COc3ccccc32)[C@@H]2COCCN12 | 2.45 h
O=C1c2c(O)c(=O)ccn2N([C@@H]2c3ccccc3OCc3c(Cl)cccc32)[C@@H]2COCCN12 | 2.27 h

Test system: not listed separately
Assay: MRT (0 to infinity) in CD-1 mouse at 15 mg/kg, po measured upto 24 hrs by LC-MS/MS analysis
Assay type: ADME, organism-based
Details: in vivo

SMILES | MRT inf
O=C1c2c(O)c(=O)ccn2N([C@H]2c3ccc(F)cc3COc3ccccc32)[C@@H]2COCCN12 | 4 h
O=C1c2c(O)c(=O)ccn2N([C@@H]2c3ccccc3OCc3c(Cl)cccc32)[C@@H]2COCCN12 | 6.25 h

Test system: Influenza A virus
Assay: Potency index, ratio of baloxavir EC50 to test compound EC50 for antiviral activity against Influenza A virus H3N2 (A/Aichi/2/68) infected in dog MDCK cells assessed as reduction in cytopathic effect incubated for 2 days
Assay type: functional
Details: time 2 day

SMILES | Ratio
O=C1c2c(O)c(=O)ccn2N([C@H]2c3ccc(F)cc3COc3ccccc32)[C@@H]2COCCN12 | >5
O=C1c2c(O)c(=O)ccn2N([C@@H]2c3ccccc3OCc3c(Cl)cccc32)[C@@H]2COCCN12 | >5

Test system: not listed separately
Assay: MRT (0 to infinity) in CD-1 mouse at 1 mg/kg, iv measured upto 24 hrs by LC-MS/MS analysis
Assay type: ADME, organism-based
Details: in vivo

SMILES | MRT inf
O=C1c2c(O)c(=O)ccn2N([C@H]2c3ccc(F)cc3COc3ccccc32)[C@@H]2COCCN12 | 2.91 h
O=C1c2c(O)c(=O)ccn2N([C@@H]2c3ccccc3OCc3c(Cl)cccc32)[C@@H]2COCCN12 | 2.57 h

Test system: not listed separately
Assay: Half life in CD-1 mouse at 15 mg/kg, po measured upto 24 hrs by LC-MS/MS analysis
Assay type: ADME, organism-based
Details: in vivo

SMILES | half-life
O=C1c2c(O)c(=O)ccn2N([C@H]2c3ccc(F)cc3COc3ccccc32)[C@@H]2COCCN12 | 2.83 h
O=C1c2c(O)c(=O)ccn2N([C@@H]2c3ccccc3OCc3c(Cl)cccc32)[C@@H]2COCCN12 | 4.45 h

Test system: Influenza A virus
Assay: Antiviral activity against Influenza A virus H1N1 infected in dog MDCK cells assessed as reduction in polymerase acidic protein expression at 10 to 20 nM by Western blot analysis
Assay type: functional, organism-based
Details: dose 10-20 nM

SMILES | Activity
O=C1c2c(O)c(=O)ccn2N([C@H]2c3ccc(F)cc3COc3ccccc32)[C@@H]2COCCN12 | Active
O=C1c2c(O)c(=O)ccn2N([C@@H]2c3ccccc3OCc3c(Cl)cccc32)[C@@H]2COCCN12 | Active

Test system: not listed separately
Assay: Selectivity index, ratio of CC50 for cytotoxicty against MDCK cells to EC50 for antiviral activity against Influenza A virus H3N2 (A/Aichi/2/68) infected in dog MDCK cells
Assay type: toxicity, cell-based
Details: read-out: Selectivity Index

SMILES | selectivity ratio
O=C1c2c(O)c(=O)ccn2N([C@H]2c3ccc(F)cc3COc3ccccc32)[C@@H]2COCCN12 | > 64100
O=C1c2c(O)c(=O)ccn2N([C@@H]2c3ccccc3OCc3c(Cl)cccc32)[C@@H]2COCCN12 | 31600

Test system: not listed separately
Assay: Tmax in CD-1 mouse at 1 mg/kg, iv measured upto 24 hrs by LC-MS/MS analysis
Assay type: ADME, organism-based
Details: in vivo

SMILES | Tmax
O=C1c2c(O)c(=O)ccn2N([C@H]2c3ccc(F)cc3COc3ccccc32)[C@@H]2COCCN12 | 4.8 min
O=C1c2c(O)c(=O)ccn2N([C@@H]2c3ccccc3OCc3c(Cl)cccc32)[C@@H]2COCCN12 | 4.8 min

Test system: not listed separately
Assay: Metabolic stability in mouse liver microsomes assessed as intrinsic clearance at 1 uM incubated for 60 mins in presence of NADPH by LC-MS/MS analysis
Assay type: ADME, Microsome
Details: 1 h

SMILES | CLint
O=C1c2c(O)c(=O)ccn2N([C@H]2c3ccc(F)cc3COc3ccccc32)[C@@H]2COCCN12 | 9.4 µL/min/mg
O=C1c2c(O)c(=O)ccn2N([C@@H]2c3ccccc3OCc3c(Cl)cccc32)[C@@H]2COCCN12 | 10.2 µL/min/mg

Test system: not listed separately
Assay: Tmax in CD-1 mouse at 15 mg/kg, po measured upto 24 hrs by LC-MS/MS analysis
Assay type: ADME, organism-based
Details: in vivo

SMILES | Tmax
O=C1c2c(O)c(=O)ccn2N([C@H]2c3ccc(F)cc3COc3ccccc32)[C@@H]2COCCN12 | 1.33 h
O=C1c2c(O)c(=O)ccn2N([C@@H]2c3ccccc3OCc3c(Cl)cccc32)[C@@H]2COCCN12 | 2.67 h
